Measured values: patent US4200646A, “Method of controlling the growth of microorganisms using nitroalkyl thiocyanates” (International Minerals & Chemical Corporation, priority 1979, dated 1980)
In brackets after ≈: the same amount, converted by molar mass. Entries after “also recorded” stand apart in the source; their conditions may differ. Read-outs that look alike come from different tables or passages of the source.

Experiments:
microorganisms = experiment: Control of growth of microorganisms in metal working fluids; conditions: 500-1000 ppm or more
bacteria and fungi = experiment: Antimicrobial activity against bacteria and fungi; assay type: cell-based
Aspergillus fumigatus = experiment: Tube dilution method, minimum inhibitory concentration; assay type: cell-based
[1] = LD50 in mice by oral administration; conditions: mouse, in vivo
Experimental: The LD50 in mice by oral administration was determined to be 500 mg/kg.

[2] = tested on: Pasteurella pseudotuberculosis; experiment: microbe, parasite or virus in culture; assay type: cell-based; conditions: Yersinia pseudotuberculosis, pH 7.3, read-out: Inhibitory Concn (minimum inhibitory concentration)
Streptococcus fecalis = experiment: Tube dilution method, minimum inhibitory concentration; assay type: cell-based
Pseudomonas aeruginosa = experiment: as above; assay type: cell-based
Staphyloccus aureus = experiment: as above; assay type: cell-based
Aspergillus niger = experiment: as above; assay type: cell-based
[3] = tested on: Streptococcus hemolyticus; experiment: as above; assay type: cell-based; conditions: Streptococcus pyogenes
Shigella dysenteriae = experiment: as above; assay type: cell-based; conditions: pH 7.3, read-out: Inhibitory Concn (minimum inhibitory concentration)
Mycobacterium ranae = experiment: as above; assay type: cell-based
microbial contamination = experiment: Microbial contamination of cutting oil emulsion in use; conditions: emulsion with P-2216 0.1, light mineral oil 20, water 76.9, emulsifying agent 3 parts
Experimental: A cutting oil emulsion is prepared according to the following formula: […]
Light mineral oil 20 parts

Penicillium sp. = experiment: Tube dilution method, minimum inhibitory concentration; assay type: cell-based
Candida albicans = experiment: as above; assay type: cell-based
Escherichia coli = experiment: as above; assay type: cell-based
[4] = pH 5.6, read-out: Inhibitory Concn (minimum inhibitory concentration)
[5] = pH 7.3, read-out: Inhibitory Concn (minimum inhibitory concentration)
[6] = Sabouraud broth pH 5.6, range between highest concentration permitting growth and lowest preventing growth, read-out: Inhibitory Concn (minimum inhibitory concentration)
[7] = trypticase soya broth pH 7.3, range between highest concentration permitting growth and lowest preventing growth, read-out: Inhibitory Concn (minimum inhibitory concentration)

Q: Which results are given for `CC(SC#N)[N+](=O)[O-]` (centres unmarked) [1-nitroethyl thiocyanate]?
A: control of growth of microorganisms in metal working fluids (microorganisms): controls the growth of microorganisms for a prolonged period; antimicrobial activity (in words) (bacteria and fungi): effective against a wide spectrum of bacteria and fungi

Q: Which “control of growth of microorganisms in metal working fluids” value (from here on “control of growth of microorganisms”) (microorganisms) does the source give for `CCC(SC#N)[N+](=O)[O-]` (centres unmarked) [1-nitropropyl thiocyanate] here?
A: controls the growth of microorganisms for a prolonged period

Q: And the “antimicrobial activity (in words)” value (bacteria and fungi)?
A: effective against a wide spectrum of bacteria and fungi

Q: With `CC(C)(SC#N)[N+](=O)[O-]` [Example P-2216, 1-methyl-1-nitroethyl thiocyanate] as the molecule, how does the MIC (Aspergillus fumigatus; [4]) read?
A: 1 to 10 µg/mL (≈ 6.84 to 68.4 µM)

Q: And the LD50 ([1]; mice, oral administration, read-out: LD50)?
A: 500 mg/kg

Q: What about the MIC [2] of the same molecule?
A: 1 to 10 µg/mL (≈ 6.84 to 68.4 µM)

Q: And the MIC (Streptococcus fecalis; Streptococcus, pH 7.3, read-out: Inhibitory Concn (minimum inhibitory concentration))?
A: 50 to 100 µg/mL (≈ 342 to 684 µM)

Q: What about the MIC (Pseudomonas aeruginosa; [5]) of the same molecule?
A: 10 to 50 µg/mL (≈ 68.4 to 342 µM)

Q: And the MIC (Staphyloccus aureus; [5])?
A: 1 to 10 µg/mL (≈ 6.84 to 68.4 µM)

Q: And the MIC (Aspergillus niger; [4])?
A: 10 to 50 µg/mL (≈ 68.4 to 342 µM)

Q: And the MIC [3, 5]?
A: 50 to 100 µg/mL (≈ 342 to 684 µM)

Q: And the MIC (Shigella dysenteriae)?
A: 10 to 50 µg/mL (≈ 68.4 to 342 µM)

Q: And the MIC (Mycobacterium ranae; Mycobacterium, pH 7.3, read-out: Inhibitory Concn (minimum inhibitory concentration))?
A: 1 to 10 µg/mL (≈ 6.84 to 68.4 µM)

Q: What about the “freedom from microbial contamination when used as a cutting oil” value (microbial contamination) of the same molecule?
A: remains free from microbial contamination for a long period of time

Q: And the MIC (Penicillium sp.; Penicillium, pH 5.6, read-out: Inhibitory Concn (minimum inhibitory concentration))?
A: 10 to 50 µg/mL (≈ 68.4 to 342 µM)

Q: And the MIC (Candida albicans; [4])?
A: 1 to 10 µg/mL (≈ 6.84 to 68.4 µM)

Q: What about the MIC (Escherichia coli; [5]) of the same molecule?
A: 10 to 50 µg/mL (≈ 68.4 to 342 µM)

Q: For `N#CSC[N+](=O)[O-]` [nitromethyl thiocyanate], which “control of growth of microorganisms” value (microorganisms) is on record?
A: controls the growth of microorganisms for a prolonged period

Q: What about the “antimicrobial activity (in words)” value (bacteria and fungi) of the same molecule?
A: effective against a wide spectrum of bacteria and fungi

Q: Which MIC (Aspergillus fumigatus; [6]) does the source give for `N#CSC1([N+](=O)[O-])CCCCC1` [Example P-2217, 1-nitrocyclohexyl thiocyanate] here?
A: 1 to 10 µg/mL (≈ 5.37 to 53.7 µM)

Q: What about the “control of growth of microorganisms” value (microorganisms) of the same molecule?
A: controls the growth of microorganisms for a prolonged period

Q: What about the LD50 ([1]; oral, species not restated in Example 5 (mice in Example 1), read-out: oral LD50) of the same molecule?
A: 150 mg/kg

Q: And the MIC [2]?
A: 10 to 50 µg/mL (≈ 53.7 to 268 µM)

Q: What about the MIC (Streptococcus fecalis; Streptococcus fecalis, trypticase soya broth pH 7.3, range between highest concentration permitting growth and lowest preventing growth, read-out: Inhibitory Concn (minimum inhibitory concentration)) of the same molecule?
A: 50 to 100 µg/mL (≈ 268 to 537 µM)

Q: And the “antimicrobial activity (in words)” value (bacteria and fungi)?
A: effective against both bacteria and fungi; also recorded: effective against a wide spectrum of bacteria and fungi

Q: And the MIC (Pseudomonas aeruginosa; [7])?
A: 10 to 50 µg/mL (≈ 53.7 to 268 µM)

Q: And the MIC (Staphyloccus aureus; Staphyloccus aureus, trypticase soya broth pH 7.3, range between highest concentration permitting growth and lowest preventing growth, read-out: Inhibitory Concn (minimum inhibitory concentration))?
A: 1 to 10 µg/mL (≈ 5.37 to 53.7 µM)

Q: And the MIC (Aspergillus niger; [6])?
A: 10 to 50 µg/mL (≈ 53.7 to 268 µM)

Q: And the MIC ([3]; Streptococcus hemolyticus, trypticase soya broth pH 7.3, range between highest concentration permitting growth and lowest preventing growth, read-out: Inhibitory Concn (minimum inhibitory concentration))?
A: 50 to 100 µg/mL (≈ 268 to 537 µM)

Q: What about the MIC (Shigella dysenteriae) of the same molecule?
A: 50 to 100 µg/mL (≈ 268 to 537 µM)

Q: What about the MIC (Mycobacterium ranae; Mycobacterium ranae, trypticase soya broth pH 7.3, range between highest concentration permitting growth and lowest preventing growth, read-out: Inhibitory Concn (minimum inhibitory concentration)) of the same molecule?
A: 1 to 10 µg/mL (≈ 5.37 to 53.7 µM)

Q: And the MIC (Penicillium sp.; Penicillium sp., Sabouraud broth pH 5.6, range between highest concentration permitting growth and lowest preventing growth, read-out: Inhibitory Concn (minimum inhibitory concentration))?
A: 10 to 50 µg/mL (≈ 53.7 to 268 µM)

Q: And the MIC (Candida albicans; [6])?
A: 10 to 50 µg/mL (≈ 53.7 to 268 µM)

Q: And the MIC (Escherichia coli; [7])?
A: 10 to 50 µg/mL (≈ 53.7 to 268 µM)
